In patent publication US11339170B1, “Spiropyrrolidine derived antiviral agents” (priority 2021, dated 2022):
Like-named read-outs stand apart in the source and are kept apart here.

Key:
[1] = target: SARS-CoV-2 3CL-protease (Severe acute respiratory syndrome coronavirus 2 (2019-nCoV) (SARS-CoV-2), UniProt P0DTD1); assay: SARS-CoV-2 3C-like (3CL) protease fluorescence assay (FRET); assay type: biochemical
[2] = test system: 229E human corona virus (hCoV); assay: 229E live virus assay (CPE, ATPlite readout) in MRC-5 cells; assay type: cell-based, hCoV-229E; details: Human coronavirus 229E, MRC5, 144 h, read-out: 229E EC50
[3] = recombinant SARS-CoV-2 3CL-protease 10 nM, 30 min preincubation, duplicate, read-out: FRET IC50

SMILES | IC50 [1] [nM] | EC50 [2] [nM] | IC50 [1, 3] [nM] | EC50 ([2]; MRC-5 cells, MOI 0.05, 6 days at 34° C., ATPlite, duplicate) [nM] | IC50 ([1]; read-out: FRET IC50, recombinant SARS-CoV-2 3CL-protease 10 nM, 30 min preincubation, duplicate) [nM]
[2H]C([2H])([2H])N(C(=O)C(=O)NC1CCCC1)[C@@H](CC(C)(C)C)C(=O)N1C[C@]2(C[C@H]1C#N)C(=O)Nc1ccccc12 [Compound 31] | < 100 | < 100 | – | – | –
CC(C)(C)C[C@H](NC(=O)C(=O)NC1CC1)C(=O)N1C[C@]2(C[C@H]1C#N)C(=O)Nc1ccccc12 [Compound 70] | < 100 | < 100 | – | – | –
CC(C)C[C@@H](C(=O)N1C[C@]2(C[C@H]1C#N)C(=O)Nc1ccccc12)N(C)C(=O)C(=O)Nc1nc2ccccc2s1 [Compound 17] | < 100 | < 100 | – | – | –
CC(C)C[C@@H](C(=O)N1C[C@]2(C[C@H]1C#N)C(=O)Nc1ccccc12)N(C)C(=O)C(=O)Nc1ccc2ccccc2c1 [Compound 7] | < 100 | < 100 | – | – | –
[2H]C([2H])([2H])N(C(=O)C(=O)Nc1ccc(F)c(F)c1)[C@@H](CC(C)(C)C)C(=O)N1C[C@]2(C[C@H]1C#N)C(=O)Nc1ccccc12 [Compound 24] | < 100 | < 100 | – | – | –
CC(C)(C)C[C@H](NC(=O)C(=O)Nc1c(F)cccc1F)C(=O)N1C[C@]2(C[C@H]1C#N)C(=O)Nc1ccccc12 [Compound 71] | < 100 | < 100 | – | – | –
CC(C)C[C@@H](C(=O)N1C[C@]2(C[C@H]1C#N)C(=O)Nc1ccccc12)N(C)C(=O)C(=O)Nc1ccc2cccnc2c1 [Compound 11] | < 100 | < 100 | – | – | –
CC(C)(C)C[C@H](NC(=O)C(=O)NC1(c2ccc(F)cc2F)CC1)C(=O)N1C[C@]2(C[C@H]1C#N)C(=O)Nc1ccccc12 [Compound 72] | < 100 | < 100 | – | – | –
[2H]C([2H])([2H])N(C(=O)C(=O)NC(C)(C)C)[C@@H](CCCC)C(=O)N1C[C@]2(C[C@H]1C#N)C(=O)Nc1ccccc12 [Compound 49] | < 100 | < 100 | – | – | –
[2H]C([2H])([2H])N(C(=O)C(=O)Nc1ccccn1)[C@@H](CC(C)(C)C)C(=O)N1C[C@]2(C[C@H]1C#N)C(=O)Nc1ccccc12 [Compound 27] | 100 to 1000 | < 100 | – | – | –
CC(C)C[C@@H](C(=O)N1C[C@]2(C[C@H]1C#N)C(=O)Nc1ccccc12)N(C)C(=O)C(=O)Nc1ccc(F)c(F)c1 [Compound 5] | 100 to 1000 | < 100 | – | – | –
CC(C)C[C@@H](C(=O)N1C[C@]2(C[C@H]1C#N)C(=O)Nc1ccccc12)N(C)C(=O)C(=O)Nc1ccc2ccccc2n1 [Compound 13] | < 100 | < 100 | – | – | –
CC(C)C[C@@H](C(=O)N1C[C@]2(C[C@H]1C#N)C(=O)Nc1ccccc12)N(C)C(=O)C(=O)Nc1cc(F)c(F)c(F)c1 [Compound 6] | 100 to 1000 | < 100 | – | – | –
[2H]C([2H])([2H])N(C(=O)C(=O)Nc1ccc(F)cc1)[C@@H](CC(C)(C)C)C(=O)N1C[C@]2(C[C@H]1C#N)C(=O)Nc1ccccc12 [Compound 22] | < 100 | < 100 | – | – | –
CC(C)C[C@@H](C(=O)N1C[C@]2(C[C@H]1C#N)C(=O)Nc1ccccc12)N(C)C(=O)C(=O)NC1CC1 [Compound 40] | < 100 | < 100 | – | – | –
CN(C(=O)C(=O)Nc1ccc(F)cc1F)[C@@H](CC(C)(C)C)C(=O)N1C[C@]2(C[C@H]1C#N)C(=O)Nc1ccccc12 [Compound 20] | < 100 | < 100 | – | – | –
CC(C)C[C@@H](C(=O)N1C[C@]2(C[C@H]1C#N)C(=O)Nc1ccccc12)N(C)C(=O)C(=O)Nc1nn(C)c2ccccc12 [Compound 16] | < 100 | < 100 | – | – | –
CC(C)C[C@@H](C(=O)N1C[C@]2(C[C@H]1C#N)C(=O)Nc1ccccc12)N(C)C(=O)C(=O)Nc1nc2ccccc2[nH]1 [Compound 52] | 100 to 1000 | < 100 | – | – | –
CC(C)C[C@@H](C(=O)N1C[C@]2(C[C@H]1C#N)C(=O)Nc1ccccc12)N(C)C(=O)C(=O)Nc1ccc2ncccc2c1 [Compound 14] | < 100 | < 100 | – | – | –
CC(C)C[C@@H](C(=O)N1C[C@]2(C[C@H]1C#N)C(=O)Nc1ccccc12)N(C)C(=O)C(=O)Nc1ccc(F)cc1 [Compound 4] | < 100 | < 100 | – | – | –
[2H]C([2H])([2H])N(C(=O)C(=O)NC1CCC1)[C@@H](CC(C)(C)C)C(=O)N1C[C@]2(C[C@H]1C#N)C(=O)Nc1ccccc12 [Compound 25] | < 100 | < 100 | – | – | –
CC(C)C[C@@H](C(=O)N1C[C@]2(C[C@H]1C#N)C(=O)Nc1ccccc12)N(C)C(=O)C(=O)Nc1cccc2ccccc12 [Compound 8] | < 100 | < 100 | – | – | –
[2H]C([2H])([2H])N(C(=O)C(=O)Nc1ccc(C(F)(F)F)cc1C(F)(F)F)[C@@H](CC1CC1)C(=O)N1C[C@]2(C[C@H]1C#N)C(=O)Nc1ccccc12 [Compound 68] | < 100 | < 100 | – | – | –
[2H]C([2H])([2H])N(C(=O)C(=O)Nc1ccc(F)c(F)c1)[C@@H](Cc1ccc(F)cc1)C(=O)N1C[C@]2(C[C@H]1C#N)C(=O)Nc1ccccc12 [Compound 46] | < 100 | < 100 | – | – | –
CC(C)C[C@@H](C(=O)N1C[C@]2(C[C@H]1C#N)C(=O)Nc1ccccc12)N(C)C(=O)C(=O)N(C)c1ccccc1 [Compound 9] | < 100 | < 100 | – | – | –

SMILES | IC50 [1] [nM] | EC50 [2] [nM] | IC50 [1, 3] [nM] | EC50 ([2]; MRC-5 cells, MOI 0.05, 6 days at 34° C., ATPlite, duplicate) [nM] | IC50 ([1]; read-out: FRET IC50, recombinant SARS-CoV-2 3CL-protease 10 nM, 30 min preincubation, duplicate) [nM]
[2H]C([2H])([2H])N(C(=O)C(=O)Nc1ccc(F)cc1)[C@@H](Cc1ccccc1)C(=O)N1C[C@]2(C[C@H]1C#N)C(=O)Nc1ccccc12 [Compound 30] | < 100 | < 100 | – | – | –
[2H]C([2H])([2H])N(C(=O)C(=O)N(C)c1ccccc1)[C@@H](CC(C)(C)C)C(=O)N1C[C@]2(C[C@H]1C#N)C(=O)Nc1ccccc12 [Compound 36] | > 1000 | 100 to 1000 | – | – | –
[2H]C([2H])([2H])N(C(=O)C(=O)Nc1ccc(F)c(F)c1)[C@@H](CCCC)C(=O)N1C[C@]2(C[C@H]1C#N)C(=O)Nc1ccccc12 [Compound 47] | < 100 | < 100 | – | – | –
CC(C)C[C@@H](C(=O)N1C[C@]2(C[C@H]1C#N)C(=O)Nc1ccccc12)N(C)C(=O)C(=O)Nc1ccccc1 [Compound 3] | < 100 | < 100 | – | – | –
CC(C)C[C@@H](C(=O)N1C[C@]2(C[C@H]1C#N)C(=O)Nc1ccccc12)N(C)C(=O)C(=O)NC(C)(C)C [Compound 44] | < 100 | < 100 | – | – | –
CN(C(=O)C(=O)Nc1ccc(F)cc1)[C@@H](CC(C)(C)C)C(=O)N1C[C@]2(C[C@H]1C#N)C(=O)Nc1ccccc12 [Compound 21] | < 100 | < 100 | – | – | –
CC(C)C[C@@H](C(=O)N1C[C@]2(C[C@H]1C#N)C(=O)Nc1ccccc12)N(C)C(=O)C(=O)Nc1cnc2ccccc2c1 [Compound 15] | < 100 | < 100 | – | – | –
CC(C)C[C@@H](C(=O)N1C[C@]2(C[C@H]1C#N)C(=O)Nc1ccccc12)N(C)C(=O)C(=O)N(C)C1CC1 [Compound 42] | < 100 | < 100 | – | – | –
[2H]C([2H])([2H])N(C(=O)C(=O)Nc1ccc(F)cc1F)[C@@H](CC(C)(C)C)C(=O)N1C[C@]2(C[C@H]1C#N)C(=O)Nc1ccccc12 [Compound 23] | < 100 | < 100 | – | – | –
[2H]C([2H])([2H])N(C(=O)C(=O)NC1CCCCC1)[C@@H](CC(C)(C)C)C(=O)N1C[C@]2(C[C@H]1C#N)C(=O)Nc1ccccc12 [Compound 26] | < 100 | < 100 | – | – | –
CC(C)(C)C[C@H](NC(=O)C(=O)NC(C)(C)C)C(=O)N1C[C@]2(C[C@H]1C#N)C(=O)Nc1ccccc12 [Compound 69] | < 100 | – | – | – | –
CC(C)C[C@@H](C(=O)N1C[C@]2(C[C@H]1C#N)C(=O)Nc1ccccc12)N(C)C(=O)C(=O)Nc1ccc2cnccc2c1 [Compound 12] | < 100 | < 100 | – | – | –
CN(C(=O)C(=O)Nc1ccc(F)c(F)c1)[C@@H](Cc1ccccc1)C(=O)N1C[C@]2(C[C@H]1C#N)C(=O)Nc1ccccc12 [Compound 45] | < 100 | < 100 | – | – | –
[2H]C([2H])([2H])N(C(=O)C(=O)Nc1cnc2ccccc2c1)[C@@H](CCCC)C(=O)N1C[C@]2(C[C@H]1C#N)C(=O)Nc1ccccc12 [Compound 50] | < 100 | < 100 | – | – | –
CC(C)C[C@@H](C(=O)N1C[C@]2(C[C@H]1C#N)C(=O)Nc1ccccc12)N(C)C(=O)C(=O)Nc1n[nH]c2ccccc12 [Compound 19] | – | – | < 100 | < 100 | –
CC(C)C[C@@H](C(=O)N1C[C@]2(C[C@H]1C#N)C(=O)Nc1ccccc12)N(C)C(=O)C(=O)C1CC1 [Compound 43] | < 100 | < 100 | – | – | –
[2H]C([2H])([2H])N(C(=O)C(=O)Nc1ccc(F)cc1)[C@@H](CC1CC1)C(=O)N1C[C@]2(C[C@H]1C#N)C(=O)Nc1ccccc12 [Compound 39] | < 100 | < 100 | – | – | –
CC(C)C[C@@H](C(=O)N1C[C@]2(C[C@H]1C#N)C(=O)Nc1ccccc12)N(C)C(=O)C(=O)Nc1nc2ccccc2n1C [Compound 18] | < 100 | < 100 | – | – | –
[2H]C([2H])([2H])N(C(=O)C(=O)Nc1ccc(F)c(F)c1)[C@@H](CC1CC1)C(=O)N1C[C@]2(C[C@H]1C#N)C(=O)Nc1ccccc12 [Compound 38] | < 100 | < 100 | – | – | –
CC(C)C[C@@H](C(=O)N1C[C@]2(C[C@H]1C#N)C(=O)Nc1ccccc12)N(C)C(=O)C(=O)Nc1ccc(F)cc1F [Compound 2] | – | – | < 100 | – | –
CC(C)C[C@@H](C(=O)N1C[C@]2(C[C@H]1C#N)C(=O)Nc1ccccc12)N(C)C(=O)C(=O)Nc1nc2ccccc2o1 [Compound 53] | > 1000 | 100 to 1000 | – | – | –
[2H]C([2H])([2H])N(C(=O)C(=O)Nc1ccc2ncccc2c1)[C@@H](CC(C)(C)C)C(=O)N1C[C@]2(C[C@H]1C#N)C(=O)Nc1ccccc12 [Compound 37] | < 100 | < 100 | – | – | –
CC(C)C[C@@H](C(=O)N1C[C@]2(C[C@H]1C#N)C(=O)Nc1ccccc12)N(C)C(=O)C(=O)N(C)c1ccc(F)cc1 [Compound 10] | < 100 | < 100 | – | – | –
CC(C)C[C@@H](C(=O)N1C[C@]2(C[C@H]1C#N)C(=O)Nc1ccccc12)N(C)C(=O)C(=O)Nc1ccc(F)cc1F [Compound 1] | – | – | – | – | < 100
